Data published in patent US20250082781A1, “METHODS OF LOWERING BLOOD GLUCOSE AND TREATING TYPE 2 DIABETES BY ACTIVATION OF PDE4D3” (Salk Institute for Biological Studies, priority 2021, published 2025).

Legend:
Format in all cases: in vivo, mouse
blood glucose levels = experiment: Blood glucose levels in DIO mice; settings: for blood glucose levels: 0.5 mg/kg FGF1 s.c.
Protocol: Mice were kept in 12 h light/dark cycle in a temperature-controlled environment. Mice had free access to food and water unless noted otherwise. C57/B6 mice background was used unless noted otherwise. C57BL/6J and ob/ob (000632-B6. Cg-Lepob/J) male mice were obtained from Jackson Laboratory. PDE4D knock-out mice (034588-UCD) were obtained from MMRRC. For diet-induced obesity (DIO) studies, mice were fed a high fat diet (HFD) (60% fat, F3282; Bio-Serv) for minimum of 12 weeks to induce insulin resistance when diet-induced obese model is used. Insulin levels and blood glucose levels were monitored to confirm insulin resistance. To generate adipose-specific FGFR1 deletion, adiponectin-cre mice (B6; FVB-Tg (Adipoq-cre)1Evdr/J; Stock: 010803) were crossed to Fgfr1 flox/flox (B6.129S4-Fgfr1tm5.1Sor/J; Stock: 00767) mice. For AAV mediated expression of target proteins in adipose tissue, 5×10E+11 genomic copies of AAV were injected via tail vein or retro-orbital route.
Recombinant FGF1 (rFGF1) was dissolved in phosphate-buffered saline (PBS) at a concentration of 0.2 mg/ml and was injected subcutaneously at a 0.5 mg kg^−1 dose. Blood glucose was monitored at indicated time points after injection. For initial measurements (2-4 h) food was removed after injection to exclude any indirect effects stemming from anorexigenic effects of FGF1. PDE4 inhibitor roflumilast stock in DMSO was diluted at 1 mg/ml in 30% captisol, pH 10 and delivered to mice thorough oral gavage at 5 mg kg^−1 dose. PDE3 inhibitor cilostamide stock in DMSO was diluted at 2 mg/ml in 30% captisol and delivered through intraperitoneal injection at 10 mg kg^−1 dose.

[1] = test system: endogenous glucose production; experiment: Hyperinsulinemic clamp in ob/ob mice; settings: FGF1 0.5 mg/kg every other day for a week
Protocol: Before the test, mice were equipped with a permanent catheter in the right atrium via the jugular vein and were allowed to recover over a period of at least 3 days. After the recovery period, the mice were placed in experimental cages. All infusion experiments were performed in conscious, unrestrained mice as described previously (van Dijk et al., 2003). During the experiment, blood glucose levels were determined every 15 minutes using a Lifescan EuroFlash glucose meter. For GC-MS analysis of [U-^13C] glucose, bloodspots on filter paper were collected from the tail vein every 30 minutes.
Ob/ob mice were treated for 1 week with rFGF1 (0.5 mg kg^−1 every other day for one week). Steady state glucose fluxes were determined for basal and hyperinsulinemic-euglycemic clamp conditions. During the first period, mice were infused with a solution containing a tracer of [U-13C] glucose (2.5 mg/ml Cambridge Isotope Laboratories, Andover, MA) at an infusion rate of 0.54 ml/h. With respect to the final period, blood glucose levels were clamped at 20 mM. For this, the mice were infused at a constant rate of 0.135 ml/h with a mixture of insulin (44 mU/ml, Actrapid, Novo Nordisk, Bagsvaerd, Denmark), somatostatin (20 μg/ml, UCB Breda, the Netherlands), 1% BSA, and glucose (200 mg/ml from which 3% [U-^13C] glucose). Additionally, a second (variable) infusion was used containing glucose (200 mg/ml from which 3% [U-^13C] glucose) to adjust blood glucose levels.

PDE4D = experiment: Western blot of PDE4D phosphorylation in gWAT after injection; settings: 30 minutes after FGF1 injection 0.5 mg/kg
Protocol: Tissues were lysed in cold lysis buffer (50 mM Tris, pH 7.5, 150 mM NaCl, 1% NP40, 0.5% NaDoc, 0.1% SDS, 5% glycerol, 1 mM EDTA, protease and phosphatase inhibitors (complete and PhosSTOP (Roche)) by homogenization by bead-beater for 30 s. Samples were cleared for 10 min at 18,000 g at 4° C. and the middle clear phase was transferred to new tubes. A second 30 min centrifugation was performed and the middle clear phase was transferred to new tubes. Five ul protein extract was used for BCA assay to determine protein concentration. Samples were boiled in Laemmli buffer. SDS-PAGE and blotting were performed using gradient gels and Trans-Blot Turbo Transfer System (Bio-Rad). Antibodies used were PDE4D (12918-1-AP, Proteintech), pHSL-660 (4126S, Cell signaling), HSL (4107S, Cell Signaling), tubulin (CP06, Millipore Sigma), and GFP (A01388, GenScript). PDE4D3-pS44 phospho-specific antibody was generated using PDE4D3-S44 FRRHpSWISFDVDNGTSAGR peptide (SEQ ID NO: 20) (Mackenzie et al., 2002) by Pocono Rabbit Farm, using 70-day rabbit antibody production protocol and purified via affinity purification. Primary antibodies were incubated for 2 h at room temperature (RT) or overnight (ON) at 4° C. Blots were developed using SuperSignal West Pico PLUS Chemiluminescent Substrate (ThermoFisher Scientific) and imaged with BioRad GelDoc system.

hepatic β-oxidation = experiment: β-oxidation assay of hepatic mitochondria; settings: ob/ob mice 14 h after FGF1 injection
Protocol: FIGS. 8A-8E: FGF1 decreases hepatic glucose production via controlling metabolic flux to gluconeogenesis. (FIG. 8A) Pyruvate tolerance test (PTT) (left panel) and glycerol tolerance test (Glycerol TT) of overnight-fasted DIO mice 2 h after vehicle (n=6) or FGF1 (n=7) injection (0.5 mg/kg). Data are represented as mean±SEM (*p<0.05, **p<0.01, ***p<0.001). (FIG. 8B) Schematic diagram showing the steps in hepatic glucose production. […] (FIG. 8C) Relative levels of the key metabolites involved in the citric acid cycle as measured by targeted metabolomic profiling. Data are represented as mean±SEM (vehicle n=5; FGF1 n=6). (FIG. 8D) Pyruvate carboxylase, PEPCK and G6Pase levels in livers of overnight fasted ob/ob mice 2 hours after injection of vehicle or FGF1, as measured by Western blot. Protein levels are normalized to actin for quantification (n=6/arm). (FIG. 8E) β-oxidation assay of hepatic mitochondria from ob/ob mice 14 h after Vehicle (PBS) or FGF1 injection. Mitochondria were incubated with BSA-conjugated ^14C palmitate, and released ^14C CO2 was measured by scintillation counting. Data are represented as mean±SEM (n=5/arm).

In the case of “FGF1: Recombinant fibroblast growth factor 1 protein, dissolved in PBS, injected subcutaneously”, the blood glucose levels (blood glucose levels; DIO adR1KO mice) is reported as “failed to affect adR1KO mice”, the “ability of FGF1 to modulate glucose levels under inhibition of PDE3” value (blood glucose levels; DIO mice, FGF1 0.5 mg/kg, cilostamide 10 mg/kg) is reported as “failed to affect the ability of FGF1 to modulate glucose levels” and the blood glucose levels (blood glucose levels; DIO wild type mice (adR1WT)) is reported as “rapidly decreased blood glucose levels”. The blood glucose (blood glucose levels; HFD-fed PDE4D KO mice, FGF1 0.5 mg/kg) was “failed to lower blood glucose”, the “FGF1 blood glucose lowering with adAAV-driven expression of PDE4D3 in adipose tissue” value (blood glucose levels; PDE4D KO DIO mice 4 weeks after adAAV, FGF1 0.5 mg/kg) was “restored” and the “ability of FGF1 to reduce blood glucose levels with roflumilast pretreatment” value (blood glucose levels; ad lib fed DIO mice, FGF1 0.5 mg/kg, roflumilast 5 mg/kg) was “lost”. For the same substance, the “reduction in basal endogenous glucose production (EGP)” value [1] was ~25%, the “exogenous glucose infusion rate (GIR)” value ([1]; clamp conditions) was “higher” and the “glucose disposal rate (GDR)” value ([1]; clamp conditions) was “not altered”. The “PDE4D phosphorylation in gWAT” value (PDE4D) was “increase in PDE4D phosphorylation” and the “hepatic β-oxidation” value (hepatic β-oxidation) was “absence of any change”.
